Marks after values point to notes of the source that are not given here.
What was measured:
Format in all cases: in vivo
[1] = test system: Phakopsora pachyrhizi (the causal agent of Asian soybean rust); experiment: Test A: preventive spray on soybean seedlings, Asian soybean rust, visual disease rating; settings: soybean seedlings
In short: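 Preventive test: soybean seedlings received a run-off spray of compound suspended at the set ppm in 50/50 acetone/water plus 250 ppm PEG400, and one day later a P. pachyrhizi spore inoculum. Visual scoring (0 none to 100 full disease control) followed 24 h saturated incubation and 8 days' growth chamber, both at 22° C.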

[2] = test system: Zymoseptoria tritici (the causal agent of wheat leaf blotch); experiment: Test B: preventive spray on wheat seedlings, wheat leaf blotch, visual disease rating; settings: test suspension 250 ppm, wheat seedlings
In short: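 This is a preventive test: spray application preceded Zymoseptoria tritici spore inoculation by one day. Test suspensions were in acetone/water with 250 ppm PEG400 surfactant, at the listed ppm rate. After 48 h saturated humidity at 24° C and 17 days at 20° C, visual ratings scored control from 0 to 100%.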

[3] = test system: Puccinia recondita f. sp. tritici (the causal agent of wheat leaf rust); experiment: Test C: preventive spray on wheat seedlings, wheat leaf rust, visual disease rating; settings: wheat seedlings
In short: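 Wheat seedlings sprayed to run-off with compound in acetone/water (50/50) with 250 ppm PEG400, then inoculated with spores the following day. After 24 h saturated humidity at 20° C. and 6 days in growth chamber at 20° C., disease rated visually as % control relative to untreated controls.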

[4] = test suspension 10 ppm, 100 = 100% disease control, 0 = no control

Structure (SMILES) | Test A disease control rating [1, 4] | Test B disease control rating [2] | Test C disease control rating ([3]; test suspension 10 ppm) | further results
CCOC(=O)c1cnn(Cn2ccc(-c3noc(C(F)(F)F)n3)cc2=O)c1 [compound 234] | 100% | 87* % | 88% | –
CCc1nn(Cc2ccc(-c3noc(C(F)(F)F)n3)cc2)c(=O)n1C [compound 235] | – | 87% | – | Test A disease control rating ([1]; test suspension 250 ppm): 100%; Test C disease control rating ([3]; test suspension 250 ppm): 100%
Cn1c(C2CC2)nn(Cc2ccc(-c3noc(C(F)(F)F)n3)cc2)c1=O [compound 236] | – | 83% | – | Test A disease control rating ([1]; test suspension 250 ppm): 100%; Test C disease control rating ([3]; test suspension 250 ppm): 100%
CC(C)c1nn(Cc2ccc(-c3noc(C(F)(F)F)n3)cc2)c(=O)n1C [compound 237] | – | 94% | – | Test A disease control rating ([1]; test suspension 250 ppm): 100%; Test C disease control rating ([3]; test suspension 250 ppm): 100%
CCCc1nn(Cc2ccc(-c3noc(C(F)(F)F)n3)cc2)c(=O)n1C [compound 238] | – | 87% | – | Test A disease control rating ([1]; test suspension 250 ppm): 100%; Test C disease control rating ([3]; test suspension 250 ppm): 100%
Cn1c(C(F)(F)F)nn(CCc2ccc(-c3noc(C(F)(F)F)n3)cc2)c1=O [compound 239] | – | 0% | – | Test A disease control rating ([1]; test suspension 250 ppm): 100%; Test C disease control rating ([3]; test suspension 250 ppm): 100%
Cn1c(C(F)(F)F)nn(CCCc2ccc(-c3noc(C(F)(F)F)n3)cc2)c1=O [compound 240] | – | 4% | – | Test A disease control rating ([1]; test suspension 250 ppm): 100%; Test C disease control rating ([3]; test suspension 250 ppm): 100%
CCOC(=O)c1coc(Cc2ccc(-c3noc(C(F)(F)F)n3)cc2)n1 [compound 252] | 100% | 92* % | 84% | –
O=C(O)c1coc(Cc2ccc(-c3noc(C(F)(F)F)n3)cc2)n1 [compound 253] | 98% | 46* % | 74% | –
NC(=O)c1coc(Cc2ccc(-c3noc(C(F)(F)F)n3)cc2)n1 [compound 254] | 100% | 70* % | 100% | –
N#Cc1coc(Cc2ccc(-c3noc(C(F)(F)F)n3)cc2)n1 [compound 256] | 100% | 98* % | 99% | –
N#CCNC(=O)c1coc(Cc2ccc(-c3noc(C(F)(F)F)n3)cc2)n1 [compound 258] | 100% | 99* % | 99% | –
CC(C)NC(=O)c1coc(Cc2ccc(-c3noc(C(F)(F)F)n3)cc2)n1 [compound 259] | 100% | 99* % | 99% | –
O=C(NC1CC1)c1coc(Cc2ccc(-c3noc(C(F)(F)F)n3)cc2)n1 [compound 260] | 100% | 47* % | 100% | –
O=C(c1coc(Cc2ccc(-c3noc(C(F)(F)F)n3)cc2)n1)N1CCC1 [compound 261] | 100% | 88* % | 99% | –
CCN(CC)C(=O)c1coc(Cc2ccc(-c3noc(C(F)(F)F)n3)cc2)n1 [compound 262] | 100% | 96* % | 98% | –
Cn1ccc(CNC(=O)c2coc(Cc3ccc(-c4noc(C(F)(F)F)n4)cc3)n2)n1 [compound 265] | 100% | 93* % | 100% | –
CCOC(=O)c1cnn(Cc2cccc(-c3noc(C(F)(F)F)n3)c2)c1 [compound 276] | – | – | – | pest or weed control at 50 µg/mL ([1]; Phakopsora pachyrhizi, 216 h, test suspension 50 ppm): 100%; pest or weed control at 250 µg/mL ([2]; Zymoseptoria tritici, 456 h): 35%; pest or weed control at 50 µg/mL ([3]; Puccinia recondita, 168 h, test suspension 50 ppm): 80%
O=C(NCc1nccs1)c1coc(Cc2ccc(-c3noc(C(F)(F)F)n3)cc2)n1 [compound 277] | 100% | 99* % | 100% | –

Structure (SMILES) | Test A disease control rating [1, 4] | Test B disease control rating [2] | Test C disease control rating ([3]; test suspension 10 ppm) | further results
COC(CNC(=O)c1coc(Cc2ccc(-c3noc(C(F)(F)F)n3)cc2)n1)OC [compound 278] | 100% | 98* % | 100% | –
COCC(COC)NC(=O)c1coc(Cc2ccc(-c3noc(C(F)(F)F)n3)cc2)n1 [compound 279] | 100% | 94* % | 100% | –
CCNC(=O)c1coc(Cc2ccc(-c3noc(C(F)(F)F)n3)cc2)n1 [compound 280] | 100% | 99* % | 99% | –
O=C(NCC(F)(F)F)c1ccc(Cc2ccc(-c3noc(C(F)(F)F)n3)cc2)cc1 [compound 281] | 100% | 34* % | 95% | –
N#CCNC(=O)c1ccc(Cc2ccc(-c3noc(C(F)(F)F)n3)cc2)cc1 [compound 283] | 100% | 0* % | 98% | –
COCCNC(=O)c1cccc(Cc2ccc(-c3noc(C(F)(F)F)n3)cc2)c1 [compound 284] | 100% | 91* % | 100% | –
N#CCNC(=O)c1cccc(Cc2ccc(-c3noc(C(F)(F)F)n3)cc2)c1 [compound 285] | 100% | 94* % | 97% | –
O=C(NCC(F)(F)F)c1csc(Cc2ccc(-c3noc(C(F)(F)F)n3)cc2)c1 [compound 286] | 100% | 3* % | 100% | –
COCCNC(=O)c1csc(Cc2ccc(-c3noc(C(F)(F)F)n3)cc2)c1 [compound 287] | 100% | 98* % | 100% | –
N#CCNC(=O)c1csc(Cc2ccc(-c3noc(C(F)(F)F)n3)cc2)c1 [compound 288] | 100% | 91* % | 100% | –
O=C(NCCn1cccn1)c1csc(Cc2ccc(-c3noc(C(F)(F)F)n3)cc2)c1 [compound 289] | 100% | 80* % | 100% | –
O=C(NCC1CC1)c1csc(Cc2ccc(-c3noc(C(F)(F)F)n3)cc2)c1 [compound 290] | 100% | 53* % | 100% | –
O=C(NCC(F)(F)F)c1coc(Cc2ccc(-c3noc(C(F)(F)F)n3)cc2)c1 [compound 291] | 100% | 13* % | 97% | –
COCCNC(=O)c1coc(Cc2ccc(-c3noc(C(F)(F)F)n3)cc2)c1 [compound 292] | 100% | 96* % | 85% | –
O=C(NCCn1cccn1)c1coc(Cc2ccc(-c3noc(C(F)(F)F)n3)cc2)c1 [compound 293] | 100% | 91* % | 79% | –
N#CCNC(=O)c1coc(Cc2ccc(-c3noc(C(F)(F)F)n3)cc2)c1 [compound 294] | 100% | 50* % | 79% | –
Cc1nc(COc2ccc(-c3noc(C(F)(F)F)n3)cc2)cs1 [compound 298] | 50% | 73* % | 0% | –
CCOC(=O)c1cnn(Cn2cc(-c3noc(C(F)(F)F)n3)cn2)c1 [compound 305] | – | 0* % | – | Test A disease control rating ([1]; test suspension 50 ppm): 44%; Test C disease control rating ([3]; test suspension 50 ppm): 0%
